Common to all, as to assay: biochemical
Design in all cases: Ubiquigent DUB profiler selectivity panel, remaining enzyme activity as % of control
Common to all, as to settings: read-out: % of control remaining

The target in one experiment is JOSD1 (Homo sapiens, UniProt Q15040). The procedure: (§1) Previous work has reported IC50 values for a series of benzosulphonamide inhibitors, of which all those <1 μM were screened for selectivity, in comparison to three other USP family members ([20], [21]). We have selected one of these compounds (CMPD-39, Fig 1A) for a more rigorous test of selectivity provided by the Ubiquigent DUB profiler screening platform comprising >40 DUBs. […] To test engagement of the inhibitor with USP30 applied to intact cells, we assayed competition with Ub-PA (Ub-propargylamide). Ub-PA covalently binds to the USP30 active site leading to a characteristic upshift on a SDS–PAGE gel ([22]). If a drug blocks access to the catalytic site, then the probe modification is blocked and the apparent molecular weight of USP30 shifts down accordingly. […] A robust proxy read-out for target engagement is the enhancement of TOMM20 ubiquitylation after mitochondrial depolarization ([6], [16]). This second assay indicates a maximal effect with 200 nM CMPD-39 applied to RPE1-YFP-PRKN cells (Fig 1D).  Figure 1. CMPD-39 is a selective USP30 inhibitor. (A) Chemical structure of CMPD-39. (B) DUB specificity screen (DUB profiler, Ubiquigent) with 1-100 μM CMPD-39. […] Samples were incubated with CMPD-39 for 2 h at the indicated concentrations, then incubated with HA-Ub-PA probe for 10 min at 37°C and immunoblotted as shown. Red arrow indicates unbound USP30; blue arrow represents probe bound USP30. (D) Inhibition of USP30 enhances the ubiquitylation of TOMM20 in YFP-PRKN over-expressing hTERT-RPE1 cells in a concentration dependent manner in response to mitophagy induction. Cells were treated for 1 h with DMSO or antimycin A and oligomycin A (AO; 1 μM each) in the absence or presence of CMPD-39 at the indicated concentrations, lysed, and analyzed by Western blotting. Black arrow indicates unmodified TOMM20, ubiquitylated species are indicated by red (mono-ubiquitylated) or blue arrow heads. […] Source data are available for this figure.

The target in the next experiment is T1, UCHL5 (Homo sapiens, UniProt Q9Y5K5).
T1 sequence (Q9Y5K5 1-329): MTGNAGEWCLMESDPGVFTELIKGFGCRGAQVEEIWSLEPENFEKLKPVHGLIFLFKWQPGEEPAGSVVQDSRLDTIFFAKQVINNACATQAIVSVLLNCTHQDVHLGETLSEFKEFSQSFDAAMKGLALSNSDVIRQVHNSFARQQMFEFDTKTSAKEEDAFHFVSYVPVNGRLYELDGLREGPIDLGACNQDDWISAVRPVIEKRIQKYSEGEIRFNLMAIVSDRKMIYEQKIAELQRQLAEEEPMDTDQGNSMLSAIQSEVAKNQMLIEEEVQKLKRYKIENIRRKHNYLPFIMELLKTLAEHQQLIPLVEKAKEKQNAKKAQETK
As for the experimental part: as §1

Another experiment deals with USP12/UAF1/WDR20 (Homo sapiens, UniProt O75317). As for the experimental part:
as §1

A further experiment addresses T2, USP2 (Homo sapiens, UniProt O75604).
T2 sequence (O75604 1-605): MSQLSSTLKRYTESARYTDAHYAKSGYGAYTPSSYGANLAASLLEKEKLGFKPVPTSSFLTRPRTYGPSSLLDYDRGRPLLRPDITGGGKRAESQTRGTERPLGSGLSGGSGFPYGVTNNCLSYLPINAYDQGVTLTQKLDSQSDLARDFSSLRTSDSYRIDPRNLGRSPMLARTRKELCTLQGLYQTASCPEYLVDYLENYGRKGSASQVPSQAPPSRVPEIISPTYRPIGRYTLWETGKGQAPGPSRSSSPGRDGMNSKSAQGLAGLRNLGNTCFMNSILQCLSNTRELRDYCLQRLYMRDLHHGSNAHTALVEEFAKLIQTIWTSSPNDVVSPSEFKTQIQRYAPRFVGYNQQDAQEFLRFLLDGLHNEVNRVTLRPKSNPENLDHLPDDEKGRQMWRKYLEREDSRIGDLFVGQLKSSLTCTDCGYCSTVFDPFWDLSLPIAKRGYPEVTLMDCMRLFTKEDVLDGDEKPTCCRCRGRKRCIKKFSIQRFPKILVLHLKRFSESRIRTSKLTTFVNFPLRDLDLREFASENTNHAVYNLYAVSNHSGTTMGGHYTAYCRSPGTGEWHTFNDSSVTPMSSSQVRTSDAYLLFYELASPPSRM
As for the experimental part:
as §1

Another experiment has as its target T3, USP21 (Homo sapiens, UniProt Q9UK80).
T3 sequence (Q9UK80 1-565): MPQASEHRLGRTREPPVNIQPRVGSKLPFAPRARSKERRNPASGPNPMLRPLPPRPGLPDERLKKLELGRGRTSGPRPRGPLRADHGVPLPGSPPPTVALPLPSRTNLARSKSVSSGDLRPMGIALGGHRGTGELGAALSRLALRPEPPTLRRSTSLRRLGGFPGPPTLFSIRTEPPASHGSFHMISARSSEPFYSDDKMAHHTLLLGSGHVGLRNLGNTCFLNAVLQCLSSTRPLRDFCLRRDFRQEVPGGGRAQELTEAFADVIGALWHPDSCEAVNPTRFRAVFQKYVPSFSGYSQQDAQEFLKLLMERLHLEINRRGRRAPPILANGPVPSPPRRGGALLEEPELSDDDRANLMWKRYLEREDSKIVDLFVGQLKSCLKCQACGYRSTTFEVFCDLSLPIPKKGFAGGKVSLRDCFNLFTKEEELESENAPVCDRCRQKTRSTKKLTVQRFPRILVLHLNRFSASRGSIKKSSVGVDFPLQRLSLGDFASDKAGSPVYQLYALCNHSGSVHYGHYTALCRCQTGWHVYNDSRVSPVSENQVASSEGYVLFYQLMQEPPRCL
As for the experimental part: as §1

For the next experiment, the target named is USP7 (Homo sapiens, UniProt Q93009). As for the experimental part: as §1
USP7, sequence (Q93009 whole entry): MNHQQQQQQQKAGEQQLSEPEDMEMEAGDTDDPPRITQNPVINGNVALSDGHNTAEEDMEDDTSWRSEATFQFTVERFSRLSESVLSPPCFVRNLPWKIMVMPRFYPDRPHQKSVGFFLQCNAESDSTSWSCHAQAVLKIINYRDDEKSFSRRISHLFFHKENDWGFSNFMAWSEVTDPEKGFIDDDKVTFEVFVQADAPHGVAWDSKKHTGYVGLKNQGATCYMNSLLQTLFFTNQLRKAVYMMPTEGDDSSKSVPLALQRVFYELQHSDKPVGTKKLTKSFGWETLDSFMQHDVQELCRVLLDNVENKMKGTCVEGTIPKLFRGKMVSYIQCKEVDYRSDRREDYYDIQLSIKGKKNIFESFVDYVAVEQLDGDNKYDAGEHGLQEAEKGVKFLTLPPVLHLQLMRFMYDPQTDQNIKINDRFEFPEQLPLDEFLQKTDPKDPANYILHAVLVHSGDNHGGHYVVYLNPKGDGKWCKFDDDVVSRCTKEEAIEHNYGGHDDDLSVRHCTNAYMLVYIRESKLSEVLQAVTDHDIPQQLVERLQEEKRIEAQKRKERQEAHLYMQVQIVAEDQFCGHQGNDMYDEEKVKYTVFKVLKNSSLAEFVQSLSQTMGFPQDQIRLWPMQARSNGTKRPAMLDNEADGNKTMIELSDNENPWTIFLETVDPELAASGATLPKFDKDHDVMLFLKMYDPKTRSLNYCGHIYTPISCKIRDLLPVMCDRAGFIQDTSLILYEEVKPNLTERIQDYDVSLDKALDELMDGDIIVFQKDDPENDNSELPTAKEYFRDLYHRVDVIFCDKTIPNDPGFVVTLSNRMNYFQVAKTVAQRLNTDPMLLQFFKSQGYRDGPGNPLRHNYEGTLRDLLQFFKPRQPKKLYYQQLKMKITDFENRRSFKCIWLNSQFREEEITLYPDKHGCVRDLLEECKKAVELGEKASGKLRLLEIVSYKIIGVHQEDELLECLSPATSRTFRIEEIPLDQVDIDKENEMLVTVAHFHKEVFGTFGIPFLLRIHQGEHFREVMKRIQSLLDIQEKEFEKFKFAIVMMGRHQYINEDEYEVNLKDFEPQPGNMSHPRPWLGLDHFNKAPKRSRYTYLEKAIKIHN

USP12/UAF1/WDR20, sequence (O75317 whole entry): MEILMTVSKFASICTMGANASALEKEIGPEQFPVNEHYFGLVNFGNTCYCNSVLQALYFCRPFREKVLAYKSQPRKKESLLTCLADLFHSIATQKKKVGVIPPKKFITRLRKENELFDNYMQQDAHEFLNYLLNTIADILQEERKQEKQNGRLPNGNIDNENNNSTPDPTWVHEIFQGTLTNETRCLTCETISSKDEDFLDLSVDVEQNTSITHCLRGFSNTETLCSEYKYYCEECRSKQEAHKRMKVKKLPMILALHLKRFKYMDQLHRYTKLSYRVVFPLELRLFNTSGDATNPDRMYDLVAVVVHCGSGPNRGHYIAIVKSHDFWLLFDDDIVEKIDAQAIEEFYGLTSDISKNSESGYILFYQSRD
USP12/UAF1/WDR20, sequence (Q8TAF3 whole entry partner): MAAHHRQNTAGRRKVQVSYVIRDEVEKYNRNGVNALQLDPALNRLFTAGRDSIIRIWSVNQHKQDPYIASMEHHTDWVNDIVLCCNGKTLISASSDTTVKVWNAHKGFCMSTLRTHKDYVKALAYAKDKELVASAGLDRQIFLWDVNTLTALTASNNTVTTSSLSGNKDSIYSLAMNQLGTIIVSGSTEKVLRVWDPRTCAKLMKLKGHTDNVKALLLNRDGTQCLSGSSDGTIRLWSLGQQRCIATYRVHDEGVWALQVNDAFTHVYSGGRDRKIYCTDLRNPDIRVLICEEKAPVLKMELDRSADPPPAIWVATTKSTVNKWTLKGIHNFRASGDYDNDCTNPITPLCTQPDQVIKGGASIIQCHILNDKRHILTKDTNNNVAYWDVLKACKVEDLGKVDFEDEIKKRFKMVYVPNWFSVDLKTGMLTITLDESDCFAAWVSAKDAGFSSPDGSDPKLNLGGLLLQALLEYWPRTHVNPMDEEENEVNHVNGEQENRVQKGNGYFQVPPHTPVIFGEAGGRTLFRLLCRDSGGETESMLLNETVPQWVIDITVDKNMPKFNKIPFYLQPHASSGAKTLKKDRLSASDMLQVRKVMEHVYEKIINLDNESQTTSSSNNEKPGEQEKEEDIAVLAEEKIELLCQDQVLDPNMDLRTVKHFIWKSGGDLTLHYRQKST
USP12/UAF1/WDR20, sequence (Q8TBZ3 whole entry partner): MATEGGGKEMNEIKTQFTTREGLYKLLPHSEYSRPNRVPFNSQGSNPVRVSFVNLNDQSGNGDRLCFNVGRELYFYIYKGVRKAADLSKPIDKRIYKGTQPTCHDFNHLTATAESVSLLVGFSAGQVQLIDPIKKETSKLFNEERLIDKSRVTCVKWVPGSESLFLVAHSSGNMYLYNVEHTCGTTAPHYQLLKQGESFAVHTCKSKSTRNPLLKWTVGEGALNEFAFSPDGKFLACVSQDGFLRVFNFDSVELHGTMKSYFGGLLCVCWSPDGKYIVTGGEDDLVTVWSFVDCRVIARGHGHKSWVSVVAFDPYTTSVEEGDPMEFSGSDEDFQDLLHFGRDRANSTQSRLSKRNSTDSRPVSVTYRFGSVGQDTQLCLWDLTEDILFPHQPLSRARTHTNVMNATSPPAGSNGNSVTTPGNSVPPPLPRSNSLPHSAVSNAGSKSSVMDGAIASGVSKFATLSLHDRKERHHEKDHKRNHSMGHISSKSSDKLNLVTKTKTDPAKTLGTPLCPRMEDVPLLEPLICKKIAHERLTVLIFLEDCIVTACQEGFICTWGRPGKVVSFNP

Regarding `CC(C)(C)NS(=O)(=O)c1ccc(NC(=O)[C@H](Cc2ccccc2)NC(=O)c2ccc(F)cc2)cc1` [compound 39, CMPD-39], the remaining activity at 1 µM at JOSD1 came out at 98.1%; on UCHL5, 107%; on USP12/UAF1/WDR20, 114%; at USP2, 107%; on USP21, 102%; at USP7 it was 106%. Besides, the remaining activity at 10 µM was found to be 99.6% on JOSD1; 98% at UCHL5; 106% at USP12/UAF1/WDR20; 97.7% at USP2; 94% on USP21; 98.4% on USP7. The remaining activity at 100 µM on JOSD1 turned out to be 103%; on UCHL5, 101%; at USP12/UAF1/WDR20 it was 104%; on USP2 it was 101%; at USP21, 90.9%; on USP7, 94.1%.

The values are drawn from paper PMC8645336, “Benchmarking a highly selective USP30 inhibitor for enhancement of mitophagy and pexophagy” (Life Science Alliance, 2021).
